Assays:
Experiment in all cases: cells
KYSE-150 cell line = assay type: functional, cell-based, Homo sapiens; conditions: Homo sapiens, KYSE-150
Description: SANGER: Inhibition of human KYSE-150 cell growth in a cell viability assay.

A2780 = assay type: functional, cell-based, Homo sapiens; conditions: Homo sapiens, A2780
Description: SANGER: Inhibition of human A2780 cell growth in a cell viability assay.

BXPC-3 = assay type: functional, cell-based, Homo sapiens; conditions: Homo sapiens, BXPC-3
Description: SANGER: Inhibition of human BxPC-3 cell growth in a cell viability assay.

HEC-1 = assay type: functional, cell-based, Homo sapiens; conditions: Homo sapiens, HEC-1
Description: SANGER: Inhibition of human HEC-1 cell growth in a cell viability assay.

HCC1419 = assay type: functional, cell-based, Homo sapiens; conditions: Homo sapiens, HCC1419
Description: SANGER: Inhibition of human HCC1419 cell growth in a cell viability assay.

SF-268 = assay type: functional, cell-based, Homo sapiens; conditions: Homo sapiens, SF-268
Description: SANGER: Inhibition of human SF268 cell growth in a cell viability assay.

MDA-MB-231 = assay type: functional, cell-based, Homo sapiens; conditions: Homo sapiens, MDA-MB-231
Description: SANGER: Inhibition of human MDA-MB-231 cell growth in a cell viability assay.

KYSE-140 = assay type: functional, cell-based, Homo sapiens; conditions: Homo sapiens, KYSE-140
Description: SANGER: Inhibition of human KYSE-140 cell growth in a cell viability assay.

ES4 = assay type: functional, cell-based, Homo sapiens; conditions: Homo sapiens, ES4
Description: SANGER: Inhibition of human ES4 cell growth in a cell viability assay.

CAL-72 = assay type: functional, cell-based, Homo sapiens; conditions: Homo sapiens, CAL-72
Description: SANGER: Inhibition of human CAL-72 cell growth in a cell viability assay.

CTB-1 = assay type: functional, cell-based; conditions: Homo sapiens
Description: SANGER: Inhibition of human CTB-1 cell growth in a cell viability assay.

MFH-ino = assay type: functional, cell-based; conditions: Homo sapiens
Description: SANGER: Inhibition of human MFH-ino cell growth in a cell viability assay.

SKG-IIIa = assay type: functional, cell-based, Homo sapiens; conditions: Homo sapiens, SKG-IIIa
Description: SANGER: Inhibition of human SKG-IIIa cell growth in a cell viability assay.

NOMO-1 = assay type: functional, cell-based; conditions: Homo sapiens
Description: SANGER: Inhibition of human NOMO-1 cell growth in a cell viability assay.

NCI-H2228 = assay type: functional, cell-based, Homo sapiens; conditions: Homo sapiens, NCI-H2228
Description: SANGER: Inhibition of human NCI-H2228 cell growth in a cell viability assay.

AM-38 = assay type: functional, cell-based, Homo sapiens; conditions: Homo sapiens, AM-38
Description: SANGER: Inhibition of human AM-38 cell growth in a cell viability assay.

NOS-1 = assay type: functional, cell-based, Homo sapiens; conditions: Homo sapiens, NOS-1
Description: SANGER: Inhibition of human NOS-1 cell growth in a cell viability assay.

PANC-08-13 = assay type: functional, cell-based, Homo sapiens; conditions: Homo sapiens, PANC-08-13
Description: SANGER: Inhibition of human PANC-08-13 cell growth in a cell viability assay.

NCI-H1793 = assay type: functional, cell-based, Homo sapiens; conditions: Homo sapiens, NCI-H1793
Description: SANGER: Inhibition of human NCI-H1793 cell growth in a cell viability assay.

MSTO-211H = assay type: functional, cell-based, Homo sapiens; conditions: Homo sapiens, MSTO-211H
Description: SANGER: Inhibition of human MSTO-211H cell growth in a cell viability assay.

Hs-578T = assay type: functional, cell-based, Homo sapiens; conditions: Homo sapiens, Hs-578T
Description: SANGER: Inhibition of human Hs-578-T cell growth in a cell viability assay.

DMS-114 = assay type: functional, cell-based, Homo sapiens; conditions: Homo sapiens, DMS-114
BFTC-905 = assay type: functional, cell-based, Homo sapiens; conditions: Homo sapiens, BFTC-905
Description: SANGER: Inhibition of human BFTC-905 cell growth in a cell viability assay.

RT-112 = assay type: functional, cell-based, Homo sapiens; conditions: Homo sapiens, RT-112
Description: SANGER: Inhibition of human RT-112 cell growth in a cell viability assay.

KM-H2 = assay type: functional, cell-based; conditions: Homo sapiens
Description: SANGER: Inhibition of human KM-H2 cell growth in a cell viability assay.

HuO-3N1 = assay type: functional, cell-based, Homo sapiens; conditions: Homo sapiens, HuO-3N1
Description: SANGER: Inhibition of human HuO-3N1 cell growth in a cell viability assay.

HOP-62 = assay type: functional, cell-based, Homo sapiens; conditions: Homo sapiens, HOP-62
Description: SANGER: Inhibition of human HOP-62 cell growth in a cell viability assay.

RCC10RGB = assay type: functional, cell-based, Homo sapiens; conditions: Homo sapiens, RCC10RGB
Description: SANGER: Inhibition of human RCC10RGB cell growth in a cell viability assay.

ES3 = assay type: functional, cell-based, Homo sapiens; conditions: Homo sapiens, ES3
Description: SANGER: Inhibition of human ES3 cell growth in a cell viability assay.

HT1197 = assay type: functional, cell-based, Homo sapiens, HT-1197; conditions: Homo sapiens, HT1197
Description: SANGER: Inhibition of human HT-1197 cell growth in a cell viability assay.

OVCAR-8 = assay type: functional, cell-based, Homo sapiens; conditions: Homo sapiens, OVCAR-8
Description: SANGER: Inhibition of human OVCAR-8 cell growth in a cell viability assay.

CAPAN-1 = assay type: functional, cell-based, Homo sapiens; conditions: Homo sapiens, CAPAN-1
Description: SANGER: Inhibition of human CAPAN-1 cell growth in a cell viability assay.

DOK = assay type: functional, cell-based, Homo sapiens; conditions: Homo sapiens, DOK
Description: SANGER: Inhibition of human DOK cell growth in a cell viability assay.

JAR = assay type: functional, cell-based, Homo sapiens; conditions: Homo sapiens, JAR
Description: SANGER: Inhibition of human JAR cell growth in a cell viability assay.

DSH1 = assay type: functional, cell-based, Homo sapiens; conditions: Homo sapiens, DSH1
Description: SANGER: Inhibition of human DSH1 cell growth in a cell viability assay.

OVCAR-4 = assay type: functional, cell-based, Homo sapiens; conditions: Homo sapiens, OVCAR-4
Description: SANGER: Inhibition of human OVCAR-4 cell growth in a cell viability assay.

AU565 = assay type: functional, cell-based, Homo sapiens; conditions: Homo sapiens, AU565
Description: SANGER: Inhibition of human AU565 cell growth in a cell viability assay.

LS-123 = assay type: functional, cell-based, Homo sapiens; conditions: Homo sapiens, LS-123
Description: SANGER: Inhibition of human LS-123 cell growth in a cell viability assay.

SK-MEL-2 = assay type: functional, cell-based, Homo sapiens; conditions: Homo sapiens, SK-MEL-2
Description: SANGER: Inhibition of human SK-MEL-2 cell growth in a cell viability assay.

COLO-680N = assay type: functional, cell-based, Homo sapiens; conditions: Homo sapiens, COLO-680N
Description: SANGER: Inhibition of human COLO-680N cell growth in a cell viability assay.

NCI-H2170 = assay type: functional, cell-based, Homo sapiens; conditions: Homo sapiens, NCI-H2170
Description: SANGER: Inhibition of human NCI-H2170 cell growth in a cell viability assay.

H4 = assay type: functional, cell-based; conditions: Homo sapiens
Description: SANGER: Inhibition of human H4 cell growth in a cell viability assay.

NCI-H2030 = assay type: functional, cell-based, Homo sapiens; conditions: Homo sapiens, NCI-H2030
Description: SANGER: Inhibition of human NCI-H2030 cell growth in a cell viability assay.

Panc1005 = assay type: functional, cell-based, Homo sapiens; conditions: Homo sapiens, Panc1005
Description: SANGER: Inhibition of human PANC-10-05 cell growth in a cell viability assay.

LCLC-103H cell line = assay type: functional, cell-based, Homo sapiens; conditions: Homo sapiens, LCLC-103H
Description: SANGER: Inhibition of human LCLC-103H cell growth in a cell viability assay.

KYSE-450 = assay type: functional, cell-based; conditions: Homo sapiens
Description: SANGER: Inhibition of human KYSE-450 cell growth in a cell viability assay.

SW48 = assay type: functional, cell-based, Homo sapiens; conditions: Homo sapiens, SW48
Description: SANGER: Inhibition of human SW48 cell growth in a cell viability assay.

SK-MEL-28 = assay type: functional, cell-based; conditions: Homo sapiens
Description: SANGER: Inhibition of human SK-MEL-28 cell growth in a cell viability assay.

COLO-792 = assay type: functional, cell-based, Homo sapiens; conditions: Homo sapiens, COLO-792
Description: SANGER: Inhibition of human COLO-792 cell growth in a cell viability assay.

## O=C(NOCC1CC1)c1ccc(F)c(F)c1Nc1ccc(I)cc1Cl [CI-1040]
KYSE-150 cell line
  IC50: > 10 µM
A2780
  IC50: 0.498 µM
BXPC-3
  IC50: > 10 µM
HEC-1
  IC50: > 10 µM
HCC1419
  IC50: > 10 µM
SF-268
  IC50: > 10 µM
MDA-MB-231
  IC50: 4.29 µM
KYSE-140
  IC50: 6.02 µM
ES4
  IC50: 8.87 µM
CAL-72
  IC50: > 10 µM
CTB-1
  IC50: 3.47 µM
MFH-ino
  IC50: > 10 µM
SKG-IIIa
  IC50: > 10 µM
NOMO-1
  IC50: 0.257 µM
NCI-H2228
  IC50: > 10 µM
AM-38
  IC50: > 10 µM
NOS-1
  IC50: > 10 µM
PANC-08-13
  IC50: > 10 µM
NCI-H1793
  IC50: > 10 µM
MSTO-211H
  IC50: 9.96 µM
Hs-578T
  IC50: 5.54 µM
DMS-114
  IC50: > 10 µM
BFTC-905
  IC50: 2.83 µM
RT-112
  IC50: 1.59 µM
KM-H2
  IC50: > 10 µM
HuO-3N1
  IC50: > 10 µM
HOP-62
  IC50: > 10 µM
RCC10RGB
  IC50: > 10 µM
ES3
  IC50: > 10 µM
HT1197
  IC50: > 10 µM
OVCAR-8
  IC50: > 10 µM
CAPAN-1
  IC50: > 10 µM
DOK
  IC50: 2.36 µM
JAR
  IC50: > 10 µM
DSH1
  IC50: > 10 µM
OVCAR-4
  IC50: > 10 µM
AU565
  IC50: > 10 µM
LS-123
  IC50: > 10 µM
SK-MEL-2
  IC50: 1.57 µM
COLO-680N
  IC50: > 10 µM
NCI-H2170
  IC50: > 10 µM
H4
  IC50: 5.04 µM
NCI-H2030
  IC50: > 10 µM
Panc1005
  IC50: 6.28 µM
LCLC-103H cell line
  IC50: > 10 µM
KYSE-450
  IC50: > 10 µM
SW48
  IC50: 6.95 µM
SK-MEL-28
  IC50: 0.304 µM
COLO-792
  IC50: 2.84 µM

## Cn1cc(C2=C(c3ccc(Cl)cc3Cl)C(=O)NC2=O)c2ccccc21 [SB-216763]
KYSE-150 cell line
  IC50: > 10 µM
A2780
  IC50: > 10 µM
BXPC-3
  IC50: > 10 µM
HEC-1
  IC50: > 10 µM
HCC1419
  IC50: > 10 µM
SF-268
  IC50: > 10 µM
MDA-MB-231
  IC50: > 10 µM
KYSE-140
  IC50: > 10 µM
ES4
  IC50: > 10 µM
CAL-72
  IC50: > 10 µM
CTB-1
  IC50: > 10 µM
MFH-ino
  IC50: > 10 µM
SKG-IIIa
  IC50: > 10 µM
NOMO-1
  IC50: > 10 µM
NCI-H2228
  IC50: > 10 µM
AM-38
  IC50: > 10 µM
NOS-1
  IC50: > 10 µM
PANC-08-13
  IC50: > 10 µM
NCI-H1793
  IC50: > 10 µM
MSTO-211H
  IC50: > 10 µM
Hs-578T
  IC50: > 10 µM
DMS-114
  IC50: > 10 µM
BFTC-905
  IC50: > 10 µM
RT-112
  IC50: > 10 µM
KM-H2
  IC50: > 10 µM
HuO-3N1
  IC50: > 10 µM
HOP-62
  IC50: 0.853 µM
RCC10RGB
  IC50: > 10 µM
ES3
  IC50: > 10 µM
HT1197
  IC50: > 10 µM
OVCAR-8
  IC50: > 10 µM
CAPAN-1
  IC50: > 10 µM
DOK
  IC50: > 10 µM
JAR
  IC50: 1.21 µM
DSH1
  IC50: > 10 µM
OVCAR-4
  IC50: > 10 µM
AU565
  IC50: > 10 µM
LS-123
  IC50: > 10 µM
SK-MEL-2
  IC50: > 10 µM
COLO-680N
  IC50: > 10 µM
NCI-H2170
  IC50: > 10 µM
H4
  IC50: > 10 µM
NCI-H2030
  IC50: > 10 µM
Panc1005
  IC50: > 10 µM
LCLC-103H cell line
  IC50: > 10 µM
KYSE-450
  IC50: > 10 µM
SW48
  IC50: > 10 µM
SK-MEL-28
  IC50: > 10 µM
COLO-792
  IC50: > 10 µM

Source: ChEMBL document CHEMBL1201861, “Genomics of Drug Sensitity in Cancer screening data, Wellcome Trust Sanger Institute”
